“And” between values parts separate entries of the source, which are not always exact repeats. Identical values can stand only once. Like-named read-outs stand apart in the source and are kept apart here.
Legend:
[1] = test system: Leishmania amazonensis promastigotes; experiment: Anti-promastigote activity (XTT); type: cell-based; conditions: read-out: IC50 Promastigotes
Description: L. amazonensis (WHOM/BR/75/Josefa) promastigotes were cultured at 26°C in Schneider insect medium (Sigma), 10% fetal calf serum (Gibco-BRL, MD, US.) and 20 μg/mL of gentamycin (Schering-Plough, Rio de Janeiro, Brazil).
The leishmanicidal properties of the analogs were evaluated by measuring promastigotes’ mitochondrial activity using the XTT method with 2,3-bis-[2-methoxy-4-nitro-5-sulphophenyl]-2H-tetrazolium-5-carboxanilida, Sigma) as described previously. […] Sodium azide (10 μM) was used as a control, and the reaction product was read at 450 nm.

[2] = test system: L. amazonensis intracellular amastigotes; experiment: Anti-amastigote activity in infected macrophages; type: cell-based, Leishmania amazonensis; conditions: for IC50: L. amazonensis in murine peritoneal macrophages, 24 h treatment; for SI (selectivity index; therapeutic index): ratio of CC50 on murine peritoneal macrophages to IC50 on L. amazonensis intracellular amastigotes
Description: Mice peritoneal macrophages obtained after stimulation with thioglycolate for 3 days were harvested in RPMI 1640 medium (LGC Biotecnologia, São Paulo, Brazil), 20 μg/mL of gentamycin and were plated onto 13 mm^2 coverslips inside 24-well plates for adherence for 2 h at 37°C, 5% CO2. Non-adherent cells were removed, and the macrophages were incubated overnight in RPMI supplemented with 10% FCS, as described above. Adhered macrophages were infected with L. amazonensis promastigotes (stationary growth phase) at a 10:1 parasite/macrophage ratio and incubated for 1 h at 34°C, 5% CO2. Free parasites were washed out with 0.01 M phosphate buffered saline (PBS), and the cultures maintained for 24 h at 37°C, 5% CO2. Infected macrophage cultures were treated with different concentrations of the analogs for an additional 24 h at 37°C, 5% CO2. Monolayers were then washed with PBS at 37°C, fixed in methanol, and stained with Giemsa. The number of amastigotes and the percentage of infected macrophages were determined by counting at least 200 cells in duplicate cultures. Endocytic indices were obtained by multiplying the percentage of infected macrophages by the mean number of amastigotes per infected macrophage. The results were expressed as the percentage of surviving macrophages based on endocytic indices of treated and untreated macrophages as reported previously.
The selectivity index was calculated as the ratio of murine peritoneal macrophages CC50 by L. amazonensis intracellular amastigotes IC50.

[3] = test system: murine peritoneal macrophages; experiment: Nitric oxide production by macrophages (Griess); type: cell-based, mouse
Description: Thioglycolate-stimulated peritoneal macrophages were obtained as described above (10^6 cells/well in 24-well plate) and were activated with 1 μg/ml LPS (Sigma-Aldrich) or left untreated. […] The nitrite concentrations in the culture supernatants were determined using the Griess method. The reaction was read at 540 nm, and the concentration of NO2 ^- determined using a standard curve of sodium nitrite. The results are expressed as micromolar concentrations of nitrite.

[4] = Nitric oxide-trapping capacity, cell-free SNAP system; conditions: 1 mM SNAP, 6 h, rutin 1 mM, pterostilbene 33.2 μM, piceatannol 45 μM, polydatin 29 μM, oxyresveratrol 30.5 μM
Description: A cell-free system with an NO donor was used to test the capacity of resveratrol analogs to trap NO. SNAP (s-nitroso n-acetyl DL-penicillamine, Sigma) liberates nitric oxide in solution, which is then transformed to nitrite in the medium. The addition of a NO scavenger to the SNAP solution results in nitrite decay in the supernatant. […] One milimolar rutin (Sigma), a known NO scavenger, was used as a positive control for this assay. After 6 h of incubation, the nitrite concentration was determined using the Griess method. The results are expressed as the μM concentration of nitrite calculated in comparison with the sodium nitrite standard curve.

[5] = test system: murine peritoneal macrophages; experiment: Detection of reactive oxygen species (DHR 123); type: cell-based, mouse; conditions: compounds at amastigote IC50
Description: Mice peritoneal macrophages were adhered to 96-well opaque culture plates and then infected or not with L. amazonensis promastigotes. […] The cells were then stained with 50 μM dihydrorhodamine 123 (DHR 123, Life Technologies), and ROS was measured immediately using 500/526 nm excitation/emission wavelengths.

[6] = test system: Leishmania amazonensis promastigotes; experiment: Cell cycle analysis (PI, flow cytometry); type: cell-based; conditions: 48 h; for Effect on the cell cycle of the parasite: at promastigote IC50; for % cells in different stages of the cell cycle: G0/G1 / % cells in different stages of the cell cycle: G2/M / % cells in different stages of the cell cycle: S / % cells in different stages of the cell cycle: Sub-G0 / % cells: Hyperploidies: pterostilbene 17.7 μM, piceatannol 65 μM, polydatin 95.4 μM, oxyresveratrol 65 μM, mean ± SEM
Description: The cells were washed with PBS and fixed in 70% (v/v) ice-cold methanol/PBS for at least 1 h at 4°C. The fixed cells were washed once with PBS and then incubated in PBS supplemented with 10 μg/mL propidium iodide (PI) and 20 μg/mL RNAse at 37°C, 45 min, as reported. For each sample, 10000 events were collected on a BD FACScalibur (Becton and Dickson) and analyzed using CellQuest software.

[7] = test system: promastigote form of L. infantum; parameters: method as in PMID 23103597; conditions: cited from earlier work
[8] = test system: amastigote form of L. infantum; parameters: method as in PMID 23103597; conditions: cited from earlier work
[9] = test system: Leishmania amazonensis promastigotes; experiment: Annexin V binding assay; type: cell-based; conditions: 48 h; piceatannol 100 μM, miltefosine 30 μM
Description: Double staining for annexin V-fluorescein isothiocyanate (FITC) and PI was performed with the Annexin-V apoptosis detection kit (Molecular Probes). […] They were then washed twice in cold annexin V-buffer and centrifuged at 2760 x g for 10 min. Pellets were resuspended in 20 μL of annexin V FITC, and after 15 min of incubation in the dark, 480 μL of annexin V-buffer was added according to the manufacturer instructions. Annexin V-FITC labeling was recorded on a BD FACScalibur (Becton and Dickson) and analyzed using CellQuest software.

[10] = Cytotoxicity for host macrophages (XTT); type: cell-based; conditions: mouse, murine peritoneal macrophages
Description: After 3 h of incubation, the reaction product was read at 450 nm. The results are expressed in percentage of viable cells compared to untreated control.

[11] = test system: Leishmania amazonensis promastigotes; experiment: Mitochondrial membrane potential (JC-1); type: cell-based; conditions: 65 μM, 48 h, JC-1 red/green ratio
Description: Change in ΔΨm was measured using the mitochondria staining kit (Sigma-Aldrich).

[12] = test system: promastigotes of L. donovani; conditions: cited from earlier work
[13] = test system: promastigotes of L. infantum; conditions: cited from earlier work
[14] = test system: promastigotes of L. major; conditions: cited from earlier work
[15] = test system: amastigotes of L. donovani in RAW macrophages; conditions: cited from earlier work
[16] = Leishmania amazonensis, Peritoneal macrophage
[17] = macrophages infected with L. amazonensis, 29 μM polydatin, 30.5 μM oxyresveratrol
[18] = L. amazonensis infected macrophages
[19] = infected and PMA-stimulated macrophages
[20] = uninfected macrophages stimulated with 1 μg/mL PMA
[21] = L. amazonensis promastigotes, 48 h treatment, XTT
[22] = Leishmania amazonensis, 48 h, L. amazonensis promastigotes, 48 h treatment, XTT
[23] = uninfected macrophages not stimulated, 33.2 μM pterostilbene, 29 μM polydatin
[24] = uninfected macrophages stimulated with LPS, 33.2 μM pterostilbene, 45 μM piceatannol

| Compound | IC50 [2, 16] | SI (selectivity index; therapeutic index) [2] | Decrease of NO levels (NO scavenging) [4] | Reduction of ROS levels [5, 18] | Reduction of ROS levels [5, 19] | Reduction of ROS levels [5, 20] | Reduction of ROS levels ([5]; uninfected macrophages) | Effect on the cell cycle of the parasite [6] | % cells in different stages of the cell cycle: G0/G1 [6] | % cells in different stages of the cell cycle: G2/M [6] | % cells in different stages of the cell cycle: S [6] | % cells in different stages of the cell cycle: Sub-G0 [6] | % cells: Hyperploidies [6] | further results |
| --- | --- | --- | --- | --- | --- | --- | --- | --- | --- | --- | --- | --- | --- | --- |
| C[C@@H]1[C@H](O)[C@@H](C)/C=C/C=C/C=C/C=C/C=C/C=C/C=C/[C@H](O[C@@H]2O[C@H](C)[C@@H](O)[C@H](N)[C@@H]2O)C[C@@H]2O[C@](O)(C[C@@H](O)C[C@@H](O)[C@H](O)CC[C@@H](O)C[C@@H](O)CC(=O)O[C@H]1C)C[C@H](O)[C@H]2C(=O)O [Amphotericin B, reference compound] | – | – | – | – | – | – | – | – | – | – | – | – | – | IC50 ([1]; Leishmania amazonensis, 48 h): 0.1 µM |
| Oc1cc(O)cc(/C=C/c2ccc(O)cc2O)c1 [Oxyresveratrol, trans-2,3′,4,5′-tetrahydroxystilbene] | 30.5 µM | 4.2 | did not reduce the levels of NO | 4.6 fold | 4.7 fold | 4.8 fold | 3.6 fold | did not alter the cell cycle | 34.380 ± 2.300% | 21.073 ± 2.386% | 9.570 ± 0.444% | 10.413 ± 3.895% | 24.862 ± 2.500% | IC50 ([1]; Leishmania amazonensis, 48 h): 65 µM; Decrease of NO production [3, 17]: 2.0 fold |
| OC[C@H]1O[C@@H](Oc2cc(O)cc(/C=C/c3ccc(O)cc3)c2)[C@H](O)[C@@H](O)[C@@H]1O [Polydatin, resveratrol-3-O-b-mono-D-glucoside] | 29 µM | 5.2 | did not reduce the levels of NO | 2.1 fold | 2.2 fold | 2.0 fold | 1.8 fold | did not alter the cell cycle | 32.040 ± 2.699% | 20.090 ± 2.661% | 8.698 ± 0.946% | 13.250 ± 4.747% | 26.233 ± 1.273% | IC50 [1, 21]: 95.5 µM; IC50 [1, 22]: 95 µM; Decrease of NO production [3, 17]: 6.1 fold; Decrease of NO production [3, 23]: 2.8 fold |
| trans-3,5-dimethoxy-4-hydroxystilbene [Pterostilbene] | – | – | 22% | 1.6 fold | 1.6 fold | 2.0 fold | – | did not alter the cell cycle | 42.380 ± 1.006% | 24.713 ± 1.331% | 7.823 ± 0.915% | 4.423 ± 0.216% | 20.873 ± 0.309% | IC50 ([1]; L. amazonensis promastigotes, 48 h treatment, XTT, listed as pterostilbene): 18 µM; IC50 [1, 21]: 17.7 µM; IC50 [2]: 33.2 µM; Decrease of NO production [3, 23]: 3.8 fold; Decrease of NO production [3, 24]: 5.3 fold; LD50 promastigote form of L. infantum [7]: 7.6 μg/mL and 29.6 μM; LD50 amastigote form of L. infantum [8]: 10.3 μg/mL and 40.2 μM |
| CCCCCCCCCCCCCCCCOP(=O)([O-])OCC[N+](C)(C)C [Miltefosine, reference compound] | – | – | – | – | – | – | – | – | – | – | – | – | – | Increase of annexin-V positive promastigotes in relation to untreated control [9]: 13.2 fold |
| Oc1cc(O)cc(/C=C/c2ccc(O)c(O)c2)c1 [Piceatannol, trans-3,4,3',5'-tetrahydroxystilbene] | 45 µM | >8.9 | did not reduce the levels of NO | 5.8 fold | 6.6 fold | 4.3 fold | 3.4 fold | – | 21.890 ± 0.840 % | 14.273 ± 0.966% | 8.167 ± 0.522% | 30.990 ± 1.544 % | 24.947 ± 0.801% | IC50 [1, 22]: 65 µM; CC50 at 24 h [10]: > 400 µM; Decrease of NO production [3, 24]: 5.0 fold; Decrease of cells in G0-G1 phase ([6]; 65 μM): 1.7 fold; Increase of cells in Sub-G0 phase ([6]; 65 μM): 5 fold; Reduction in the mitochondrial membrane potential (ΔΨm) [11]: 2.8 fold; Increase of annexin-V positive promastigotes in relation to untreated control [9]: 2.5 fold; IC50 [12]: 17.2 µM; IC50 promastigotes of L. donovani [12]: 4.2 µg/mL; IC50 [13]: 16 µM; IC50 promastigotes of L. infantum [13]: 3.9 µg/mL; IC50 [14]: 23.3 µM; IC50 promastigotes of L. major [14]: 5.7 µg/mL; IC50 [15]: 30.3 µM; IC50 amastigotes of L. donovani in RAW macrophages [15]: 7.4 µg/mL |
| C[C@@H]1O[C@@H](OC[C@H]2O[C@@H](Oc3c(-c4ccc(O)c(O)c4)oc4cc(O)cc(O)c4c3=O)[C@H](O)[C@@H](O)[C@@H]2O)[C@H](O)[C@H](O)[C@H]1O [rutin, reference compound] | – | – | 72% | – | – | – | – | – | – | – | – | – | – | – |
